Values quoted from earlier work as cited in patent US20140295417A1, “IDENTIFICATION OF ANTIBIOTIC RESISTANCE” (priority 2011, published 2014).
Like-named read-outs stand apart in the source and are kept apart here.

System: 23S rRNA
Settings: cited from earlier work
[1] = 23S rRNA position 2611, "C to G", Chlamydomonas reinhardtii (Harris et al. 1989)
[2] = 23S rRNA position 2611, "C to U", Chlamydomonas reinhardtii (Harris et al. 1989)

C[C@H]1O[C@H](O[C@H]2CC[C@H](n3ccc(NC(=O)c4ccc(NC(=O)[C@@](C)(N)CO)cc4)nc3=O)O[C@@H]2C)[C@H](O)[C@@H](O)[C@@H]1N(C)C [Amicetin]
Phenotype (23S rRNA position 2438 "U to A", Halobacterium halobium): Amicetin resistance
Phenotype (23S rRNA position 2438 "U to C", Halobacterium halobium): Amicetin resistance.

COc1ccc(C[C@H]2NC[C@H](O)[C@H]2OC(C)=O)cc1 [Animosycin]
Phenotype (23S rRNA position 2452 "C to U", Halobacterium (Hummel and Böck 1987)): Animosycin resistance.
Phenotype (23S rRNA position 2452 "C to U", Tetrahymena thermophilia): Animosycin resistance

COc1ccc(C[C@H]2NC[C@H](O)[C@H]2OC(C)=O)cc1 [Anisomycin]
Phenotype (23S rRNA position 2447 "G to C", Halobacterium halobium): resistance.
Phenotype (23S rRNA position 2453 "A to C", Halobacterium halobium): Anisomycin resistance

O=C(N[C@H](CO)[C@H](O)c1ccc([N+](=O)[O-])cc1)C(Cl)Cl [Chloramphenicol]
Phenotype (23S position 2061 G to A, Rat mitochondria, Vester and Garrett 1988): resistance
Phenotype (23S position 2062 A to C, Halobacterium halobium, Mankin and Garrett 1991): resistance.
Phenotype (23S rRNA position 2447 "G to A", Yeast mitochondria): resistance.
Phenotype (23S rRNA position 2451 "A to U", Mouse mitochondria): resistance.
Phenotype (23S rRNA position 2452 "C to A", Human mitochondria): resistance.
Phenotype (23S rRNA position 2452 "C to U", Halobacterium halobium (Mankin and Garrett 1991)): resistance.
Phenotype (23S rRNA position 2452 "C to U", Mouse mitochondria): resistance
Phenotype (23S rRNA position 2503 "A to C", Yeast mitochondria): resistance
Phenotype (23S rRNA position 2504 "U to C", Human mitochondria): resistance
Phenotype (23S rRNA position 2504 "U to C", Mouse mitochondria): resistance

CC[C@H]1OC(=O)[C@H](C)[C@@H](O[C@H]2C[C@@](C)(OC)[C@@H](O)[C@H](C)O2)[C@H](C)[C@@H](O[C@@H]2O[C@H](C)C[C@H](N(C)C)[C@H]2O)[C@](C)(OC)C[C@@H](C)C(=O)[C@H](C)[C@@H](O)[C@]1(C)O [Clarithomycin]
Phenotype (23S position 2059 A to G, Helecobacter pylori, Versalovic 1996): resistance.

CC[C@H]1OC(=O)[C@H](C)[C@@H](O[C@H]2C[C@@](C)(OC)[C@@H](O)[C@H](C)O2)[C@H](C)[C@@H](O[C@@H]2O[C@H](C)C[C@H](N(C)C)[C@H]2O)[C@](C)(OC)C[C@@H](C)C(=O)[C@H](C)[C@@H](O)[C@]1(C)O [Clarithromycin]
Phenotype (23S position 2058 A to G, Helecobacter pylori, Versalovic 1996): resistance

CC[C@H]1OC(=O)[C@H](C)[C@@H](O[C@H]2C[C@@](C)(OC)[C@@H](O)[C@H](C)O2)[C@H](C)[C@@H](O[C@@H]2O[C@H](C)C[C@H](N(C)C)[C@H]2O)[C@](C)(O)C[C@@H](C)C(=O)[C@H](C)[C@@H](O)[C@]1(C)O [Ery]
Phenotype (23S position 2058 A to U, double mutation (A2058U/G2032A), E. coli, Douthwaite 1992): hs
Phenotype (23S rRNA 2032 G to A, double mutation (G2032A/A2058U), E. coli): hs
Phenotype (23S rRNA 2057 G to A, double mutation (G2057A/C2661U), E. coli): Slightly Eryr;
Phenotype [1]: Eryr
Phenotype (23S rRNA position 2611, "C to U", double mutation (C2611U/G2057A), E. coli (Vester et al. 1995)): Slightly Eryr; reduced
Phenotype [2]: Eryr

CC[C@H]1OC(=O)[C@H](C)[C@@H](O[C@H]2C[C@@](C)(OC)[C@@H](O)[C@H](C)O2)[C@H](C)[C@@H](O[C@@H]2O[C@H](C)C[C@H](N(C)C)[C@H]2O)[C@](C)(O)C[C@@H](C)C(=O)[C@H](C)[C@@H](O)[C@]1(C)O [Erythromycin]
Phenotype (23S position 2058 A to G, Yeast mitochondria, Sor and Fukuhara 1982): resistance.
Phenotype (23S rRNA 1207 C to U, double mutant (C1207U/C1243U), E. coli): Erythromycin resistant. a Double
Phenotype (23S rRNA 1208 C to U, double mutant (C1208U/C1243U), E. coli): Erythromycin resistant. a Double
Phenotype (23S rRNA 1211 C to U, double mutant (C1211U/C1208U), E. coli): Erythromycin sensitive. a Double
Phenotype (23S rRNA 1220 G to A, double mutant (G1220A/G1239A), E. coli): Erythromycin resistant. a Double
Phenotype (23S rRNA 1221 C to U, double mutant (C1221U/C1229U), E. coli): Erythromycin resistant. a Double
Phenotype (23S rRNA 1221 C to U, double mutant (C1221U/C1233U), E. coli): Erythromycin resistant. a Double
Phenotype (23S rRNA 1230, double deletion (1230/1231), E. coli): Erythromycin sensitive. a Double
Phenotype (23S rRNA 1231, double deletion (1231/1230), E. coli): Erythromycin sensitive. a Double
Phenotype (23S rRNA 1232 G to A, double mutant (G1232A/G1238A), E. coli): Erythromycin sensitive. a Double
Phenotype (23S rRNA 1233 C to U, E. coli): Erythromycin sensitive. a
Phenotype (23S rRNA 1234 U to C, E. coli): Erythromycin sensitive. a
Phenotype (23S rRNA 1234 del1234/del1235, double mutant (U1234C/del1235), E. coli): Erythromycin sensitive. a Double
Phenotype (23S rRNA 1243 C to U, double mutant (C1243U/C1207), E. coli): Erythromycin resistant. a Double
Phenotype (23S rRNA 1243 C to U, double mutant (C1243U/C1208U), E. coli): Erythromycin resistant. a Double
Phenotype (23S rRNA 1243 C to U, double mutant (C1243U/C1221U), E. coli): Erythromycin resistant. a Double

CCC[C@@H]1C[C@@H](C(=O)N[C@@H]([C@H]2O[C@H](SC)[C@H](O)[C@@H](O)[C@H]2O)[C@@H](C)O)N(C)C1 [Lincomycin]
Phenotype (23S position 2058 A to G, Chlamydomonas reinhardtii, Harris 1989): resistance.
Phenotype (23S position 2058 A to G, Solanum nigrum, Kavanagh 1994): resistance.
Phenotype (23S position 2058 A to G, Tobacco chloroplasts, Cseplö 1988): resistance.
Phenotype (23S position 2059 A to G, Tobacco chloroplasts, Cseplö 1988): resistance.
Phenotype (23S rRNA 2032 G to A, Tobbaco chloroplasts): resistance.

CSC[S@+]([O-])C[C@H](CO)NC(=O)/C=C/c1c(C)[nH]c(=O)[nH]c1=O [Sparsomycin]
Phenotype (23S rRNA position 2499 "C to U", Halobacterium halobium): resistance

CC[C@H]1OC(=O)[C@H](C)[C@@H](O[C@H]2C[C@@](C)(OC)[C@@H](O)[C@H](C)O2)[C@H](C)[C@@H](O[C@@H]2O[C@H](C)C[C@H](N(C)C)[C@H]2O)[C@](C)(O)C[C@@H](C)C(=O)[C@H](C)[C@@H](O)[C@]1(C)O [erythromycin]
Phenotype: growth rate (23S rRNA 1056 G to A, E. coli, with 2058G and erythromycin): erythromycin) Reduced
Phenotype: growth rate (23S rRNA 1064 C to U, E. coli, with 2058G and erythromycin): erythromycin) Reduced
Phenotype (23S rRNA 1068 G to A, E. coli, with 2058G, expressed from rrnB or pL promotor in presence of erythromycin): 2058G) Lethal when
Phenotype (23S rRNA 1137 G to A, double mutant (G1137A/G1138C), E. coli, with 2058G and erythromycin, rrnB promoter): lethal when expressed from rrnB
Phenotype (23S rRNA 1137 G to A, E. coli, with 2058G and erythromycin, expressed from rrnB promoter): lethal when expressed from rrnB
Phenotype (23S rRNA 1138 G to C, double mutant (G1138C/G1137A), E. coli, with 2058G and erythromycin, rrnB promoter): lethal when expressed from rrnB
Phenotype (23S rRNA 1138 G to C, E. coli, with 2058G and erythromycin, rrnB promoter): lethal when expressed from rrnB
Phenotype: growth rate (23S rRNA 1262 A to C, double mutant (A1262C/U2017G), E. coli, with erythromycin): With erythromycin; reduced
Phenotype (23S rRNA 1262 A to C, E. coli, with erythromycin): With erythromycin; lethal
Phenotype (23S rRNA 1262 A to G, E. coli, with erythromycin): With erythromycin; lethal
Phenotype: growth rate (23S rRNA 1262 A to U, double mutant (A1262U/U2017G), E. coli, with erythromycin): With erythromycin; reduced
Phenotype: growth rate (23S rRNA 1262 A to U, E. coli, with erythromycin): With erythromycin; reduced
Phenotype: growth rate (23S rRNA 2017 U to A, E. coli): Reduced growth
Phenotype: growth rate (23S rRNA 2017 U to C, double mutation (U2017C/A1262G), E. coli): Reduced growth
Phenotype: growth rate (23S rRNA 2017 U to C, E. coli): Reduced growth
Phenotype: growth rate (23S rRNA 2017 U to G, double mutation (U2017G/A1262C), E. coli): Reduced growth
Phenotype: growth rate (23S rRNA 2017 U to G, double mutation (U2017G/A1262U), E. coli): Reduced growth

CC[C@H]1OC(=O)[C@H](C)[C@@H](O[C@H]2C[C@@](C)(OC)[C@@H](O)[C@H](C)O2)[C@H](C)[C@@H](O[C@@H]2O[C@H](C)C[C@H](N(C)C)[C@H]2O)[C@](C)(O)C[C@@H](C)C(=O)[C@H](C)[C@@H](O)[C@]1(C)O [eyrthomycin]
Phenotype: growth rate (23S rRNA 2017 U to G, E. coli): Reduced growth

CCC[C@@H]1C[C@@H](C(=O)N[C@@H]([C@H]2O[C@H](SC)[C@H](O)[C@@H](O)[C@H]2O)[C@@H](C)O)N(C)C1 [lincomycin]
Phenotype [1]: low level
Phenotype [2]: low level
